Data from patent US5747535A, “Selective thrombin inhibitors” (priority 1995, dated 1998).
pKi: −log10 of the molar value. Like-named read-outs stand apart in the source and are kept apart here.

Legend:
[1] = target: bovine thrombin (Bos taurus, UniProt P00735); test: biochemical;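 note: bovine thrombin cleaving the chromogenic substrate Chromozym TH, with para-nitroaniline release tracked as absorbance change over time to give initial rates, in Tris buffer at pH 7.8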
Description: The thrombin inhibitory effect of the compound of formula (I) according to the present invention can be identified by determination of a dissociation constant Ki represented by the following equation according to the known method described in literature [see, Methods in enzymology V. 80,p341-361;Biochemistry 27,p2144-2151 (1988)].
The dissociation constant Ki denotes the degree of dissociation of the enzyme-thrombin inhibitor complex. […] Such dissociation constant can be determined by reacting thrombin with a certain substrate which develops a color when it is hydrolyzed by the action of thrombin, and then measuring the degree of color development as a function of time by means of spectrophotometry.
Chromozym TH is hydrolyzed by thrombin to produce yellow para-nitroaniline. Accordingly, the amount of yellow para-nitroaniline thus produced can be measured as the change of absorbance in the course of time to determine the thrombin inhibitory activity of the compound according to the present invention. That is, the enzyme activity can be determined from the rate of change in absorbance and then can be directly connected with the ability of the thrombin inhibitor to inhibit the enzyme activity (see, Methods in Enzymology, V. 80,p341-361,Biochemistry 27, p2144-2151, 1988).
The ability of the compound according to the present invention to inhibit the thrombin activity was determined as described in the following.
1160 μl of 0.1M tris buffered solution (pH 7.8) containing 150 mM NaCl and 0.1% PEG 8000 (polyethylene glycol, molecular weight about 8,000) was added to a 1.5 ml cuvette. Chromozym TH was dissolved in dimethylsulfoxide(DMSO) in the concentration of 10mM and the resulting solution was diluted with the said tris buffered solution to the concentration of 0.1 mM, which was then used as the substrate solution. 225 μl of 0.1 mM substrate solution thus prepared was added to the cuvette. The inhibitor solution was prepared by dissolving the thrombin inhibitor compound according to the present invention in dimethylsulfoxide in the concentration of 10 mg/ml and then diluting the resulting solution with the said tris buffered solution to the concentration of 0.1 mg/ml, 0.01 mg/ml, 0.001 mg/ml and 0.0001 mg/ml. The resulting inhibitor solution was taken in an amount corresponding to 0 to 10 μg as the inhibitor and then diluted with tris buffered solution to make the total volume of 100 μl which was added to the cuvette.
15 μl of bovine thrombin solution dissolved in above tris buffered solution in the concentration of 0.1 mg/ml was added to the cuvette to initiate the enzyme hydrolysis reaction. The amount of para-nitroaniline produced for 2 minutes from the moment the enzyme is added was monitored by measuring the absorbance at 381 nm. The continuous spectrum of absorbance to reaction time was depicted. The same experiments were conducted for various concentration of the inhibitor to obtain the continuous spectrum.
In each spectrum, the initial velocity Vi was obtained from the slope within initial 30 seconds of the reaction time and then a graph for the reciprocal value of initial velocity(1/Vi) to the inhibitor concentration was depicted. From the graph, the primary equation satisfying the points depicted thereon was obtained and then the value Ki was calculated from the x intercept of the primary equation using the enzyme reaction equation.
The velocity constant Ks was obtained using the same solution in the same concentration as in determination of the value Ki but using the following experimental procedure.

[2] = Test 2: Pharmacokinetic test in rats; format: in vivo, rat; details: for concentration at 0.05 h: 3 min; for concentration at 0.5 h: 30 min; for concentration at 0.75 h: 45 min; for concentration at 1 h: 60 min; for concentration at 1.5 h: 90 min; for concentration at 2 h: 120 min; for concentration at 3 h: 180 min; for bioavailability: oral route
Description: (§1) Male rats and dogs were fasted for 24 hours and used as the experimental animals. […] Bloods were collected from the animals at given time intervals and then immediately mixed with methanol and zinc sulfate. Finally, the upper layer of the mixture was quantitatively analyzed at ultraviolet wavelength of 231 nm to measure the drug concentration in blood by HPLC.

[3] = Test 2: Pharmacokinetic test in dogs; format: in vivo, dog; details: for concentration at 2 min / concentration at 5 min / concentration at 10 min / concentration at 20 min / concentration at 0.5 h / concentration at 0.75 h / concentration at 1 h / concentration at 1.5 h / concentration at 2 h / concentration at 4 h / concentration at 5 h / concentration at 6 h / concentration at 3 h: 10 mg/kg; for concentration at 0.5 h: 30 min; for concentration at 0.75 h: 45 min; for concentration at 1 h: 60 min; for concentration at 1.5 h: 90 min; for concentration at 2 h: 120 min; for concentration at 4 h: 240 min; for concentration at 5 h: 300 min; for concentration at 6 h: 360 min; for concentration at 3 h: 180 min; for bioavailability: oral route
Description: as §1

[4] = rat, blood, iv, 10 mg/kg, Rat-1, i.v. 10 mg/kg, read-out: Blood concentration
[5] = rat, blood, iv, 10 mg/kg, Rat-2, i.v. 10 mg/kg, read-out: Blood concentration
[6] = rat, blood, iv, 10 mg/kg, Rat-3, i.v. 10 mg/kg, read-out: Blood concentration
[7] = rat, blood, iv, 10 mg/kg, rats, i.v. 10 mg/kg, read-out: Blood concentration, Average(+error)
[8] = rat, blood, po, 15 mg/kg, Rat-1, oral 15 mg/kg, read-out: Blood concentration
[9] = rat, blood, po, 15 mg/kg, Rat-2, oral 15 mg/kg, read-out: Blood concentration
[10] = rat, blood, po, 15 mg/kg, Rat-3, oral 15 mg/kg, read-out: Blood concentration
[11] = rat, blood, po, 15 mg/kg, rats, oral 15 mg/kg, read-out: Blood concentration, Average(+error)
[12] = dog, blood, iv, Dog-1, i.v. 10 mg/kg, read-out: Blood concentration
[13] = dog, blood, iv, Dog-2, i.v. 10 mg/kg, read-out: Blood concentration
[14] = dog, blood, iv, dogs, i.v. 10 mg/kg, read-out: Blood concentration, Average(+error)
[15] = dog, blood, po, Dog-1, oral 10 mg/kg, read-out: Blood concentration
[16] = dog, blood, po, Dog-2, oral 10 mg/kg, read-out: Blood concentration
[17] = dog, blood, po, dogs, oral 10 mg/kg, read-out: Blood concentration, Average(+error)

## CN(C(=O)[C@H](Cc1ccc(C(=N)NN)cc1)NS(=O)(=O)c1ccc2ccccc2c1)C1CCCC1 [Example 1, (S)-N-cyclopentyl-N-methyl-3-(4-amidrazonophenyl)-2-(2-naphthylsulfonylamino)propionamide]
[1]
  pKi: 8.42
[2]; [4]
  concentration at 1 min: 31500 ng/mL
  concentration at 0.05 h: 8100 ng/mL
  concentration at 5 min: 3980 ng/mL
  concentration at 10 min: 1910 ng/mL
  concentration at 20 min: 918 ng/mL
  concentration at 0.5 h: 631 ng/mL
  concentration at 0.75 h: 355 ng/mL
  concentration at 1 h: 270 ng/mL
  concentration at 1.5 h: 168 ng/mL
  concentration at 2 h: 76 ng/mL
  concentration at 3 h: 87 ng/mL
[2]; [5]
  concentration at 1 min: 23000 ng/mL
  concentration at 0.05 h: 6770 ng/mL
  concentration at 5 min: 3070 ng/mL
  concentration at 10 min: 1830 ng/mL
  concentration at 20 min: 898 ng/mL
  concentration at 0.5 h: 600 ng/mL
  concentration at 0.75 h: 408 ng/mL
  concentration at 1 h: 242 ng/mL
  concentration at 1.5 h: 166 ng/mL
  concentration at 2 h: 97 ng/mL
  concentration at 3 h: 73 ng/mL
[2]; [6]
  concentration at 1 min: 32000 ng/mL
  concentration at 0.05 h: 7880 ng/mL
  concentration at 5 min: 4220 ng/mL
  concentration at 10 min: 1930 ng/mL
  concentration at 20 min: 883 ng/mL
  concentration at 0.5 h: 591 ng/mL
  concentration at 0.75 h: 398 ng/mL
  concentration at 1 h: 289 ng/mL
  concentration at 1.5 h: 184 ng/mL
  concentration at 2 h: 119 ng/mL
  concentration at 3 h: 78 ng/mL
[2]; [7]
  concentration at 1 min: 28800 ng/mL
  concentration at 0.05 h: 7590 ng/mL
  concentration at 5 min: 3760 ng/mL
  concentration at 10 min: 1890 ng/mL
  concentration at 20 min: 900 ng/mL
  concentration at 0.5 h: 607 ng/mL
  concentration at 0.75 h: 387 ng/mL
  concentration at 1 h: 267 ng/mL
  concentration at 1.5 h: 173 ng/mL
  concentration at 2 h: 97 ng/mL
  concentration at 3 h: 79 ng/mL
[2]; [8]
  concentration at 5 min: 1610 ng/mL
  concentration at 10 min: 1480 ng/mL
  concentration at 20 min: 569 ng/mL
  concentration at 0.5 h: 232 ng/mL
  concentration at 0.75 h: 145 ng/mL
  concentration at 1 h: 143 ng/mL
  concentration at 1.5 h: 66 ng/mL
  concentration at 2 h: 34 ng/mL
  concentration at 3 h: 24 ng/mL
[2]; [9]
  concentration at 5 min: 822 ng/mL
  concentration at 10 min: 686 ng/mL
  concentration at 20 min: 166 ng/mL
  concentration at 0.5 h: 82 ng/mL
  concentration at 0.75 h: 107 ng/mL
  concentration at 1 h: 123 ng/mL
  concentration at 1.5 h: 186 ng/mL
  concentration at 3 h: 238 ng/mL
[2]; [10]
  concentration at 5 min: 570 ng/mL
  concentration at 10 min: 384 ng/mL
  concentration at 20 min: 97 ng/mL
  concentration at 0.5 h: 113 ng/mL
  concentration at 0.75 h: 112 ng/mL
  concentration at 1 h: 110 ng/mL
  concentration at 1.5 h: 119 ng/mL
  concentration at 2 h: 71 ng/mL
  concentration at 3 h: 64 ng/mL
[2]; [11]
  concentration at 5 min: 1000 ng/mL
  concentration at 10 min: 850 ng/mL
  concentration at 20 min: 255 ng/mL
  concentration at 0.5 h: 143 ng/mL
  concentration at 0.75 h: 121 ng/mL
  concentration at 1 h: 125 ng/mL
  concentration at 1.5 h: 124 ng/mL
  concentration at 2 h: 53 ng/mL
  concentration at 3 h: 109 ng/mL
[2]; rat, blood, rats, read-out: Bioavailability
  bioavailability: 15%
[2]; rat, blood, rats, read-out: Elimination Half-life, Average + (error)
  half-life: 0.783 h
[2]; rats, intravenous
  distribution and disappearance after intravenous injection: rapidly distributed and then slowly disappeared
[2]; rats
  bioavailability: 15 (2) %
[3]; [12]
  concentration at 2 min: 29100 ng/mL
  concentration at 5 min: 9080 ng/mL
  concentration at 10 min: 5940 ng/mL
  concentration at 20 min: 3610 ng/mL
  concentration at 0.5 h: 2430 ng/mL
  concentration at 0.75 h: 1940 ng/mL
  concentration at 1 h: 1470 ng/mL
  concentration at 1.5 h: 1270 ng/mL
  concentration at 2 h: 1090 ng/mL
  concentration at 4 h: 544 ng/mL
  concentration at 5 h: 315 ng/mL
  concentration at 6 h: 317 ng/mL
[3]; [13]
  concentration at 2 min: 36600 ng/mL
  concentration at 5 min: 5230 ng/mL
  concentration at 10 min: 3280 ng/mL
  concentration at 20 min: 1800 ng/mL
  concentration at 0.5 h: 1340 ng/mL
  concentration at 0.75 h: 859 ng/mL
  concentration at 1 h: 690 ng/mL
  concentration at 1.5 h: 501 ng/mL
  concentration at 2 h: 377 ng/mL
  concentration at 4 h: 129 ng/mL
  concentration at 5 h: 107 ng/mL
  concentration at 6 h: 92 ng/mL
[3]; [14]
  concentration at 2 min: 32900 ng/mL
  concentration at 5 min: 7160 ng/mL
  concentration at 10 min: 4610 ng/mL
  concentration at 20 min: 2710 ng/mL
  concentration at 0.5 h: 1880 ng/mL
  concentration at 0.75 h: 1400 ng/mL
  concentration at 1 h: 1080 ng/mL
  concentration at 1.5 h: 885 ng/mL
  concentration at 2 h: 733 ng/mL
  concentration at 4 h: 337 ng/mL
  concentration at 5 h: 211 ng/mL
  concentration at 6 h: 204 ng/mL
[3]; [15]
  concentration at 10 min: 1390 ng/mL
  concentration at 20 min: 2080 ng/mL
  concentration at 0.5 h: 1940 ng/mL
  concentration at 0.75 h: 1890 ng/mL
  concentration at 1 h: 2220 ng/mL
  concentration at 1.5 h: 1270 ng/mL
  concentration at 2 h: 774 ng/mL
  concentration at 3 h: 663 ng/mL
  concentration at 4 h: 812 ng/mL
  concentration at 5 h: 51 ng/mL
  concentration at 6 h: 118 ng/mL
[3]; [16]
  concentration at 10 min: 15 ng/mL
  concentration at 20 min: 17 ng/mL
  concentration at 0.5 h: 105 ng/mL
  concentration at 0.75 h: 558 ng/mL
  concentration at 1 h: 1310 ng/mL
  concentration at 1.5 h: 935 ng/mL
  concentration at 2 h: 730 ng/mL
  concentration at 3 h: 616 ng/mL
  concentration at 4 h: 318 ng/mL
  concentration at 5 h: 222 ng/mL
  concentration at 6 h: 153 ng/mL
[3]; [17]
  concentration at 10 min: 702 ng/mL
  concentration at 20 min: 1050 ng/mL
  concentration at 0.5 h: 1020 ng/mL
  concentration at 0.75 h: 1220 ng/mL
  concentration at 1 h: 1760 ng/mL
  concentration at 1.5 h: 1100 ng/mL
  concentration at 2 h: 752 ng/mL
  concentration at 3 h: 640 ng/mL
  concentration at 4 h: 565 ng/mL
  concentration at 5 h: 136 ng/mL
  concentration at 6 h: 135 ng/mL
[3]; dog, blood, dogs, read-out: Bioavailability
  bioavailability: 61%
[3]; dog, blood, dogs, read-out: Elimination Half-life, Average + (error)
  half-life: 1.63 h
[3]; dogs vs argatroban (40 minutes) in human being
  elimination half-life in dogs compared with argatroban in human being: twice longer or more than that of commercially available argatroban
[3]; dogs vs rats, intravenous
  elimination half-life in dogs compared with rats: twice longer or more than that in rats
[3]; dogs, intravenous
  distribution and disappearance after intravenous injection: rapidly distributed and then slowly disappeared
[3]; dogs
  bioavailability: 61 (15) %
[3]; oral absorption and elimination half-life
  pharmacokinetic characteristics compared with argatroban: better pharmacokinetic characteristics than argatroban
